# Results published in ChEMBL document CHEMBL3875185, “Structure-anticonvulsant activity studies in the group of (E)-N-cinnamoyl aminoalkanols derivatives monosubstituted in phenyl ring with 4-Cl, 4-CH3 or 2-CH3” (Bioorg Med Chem, 2017).
# Activity calls are given as the source filed them. No cut-off for these calls is given here.
# Tests used:
# [1] = test system: Mus musculus; assay: Neurotoxicity in mouse assessed as induction of motor impairment at 300 mg/kg, ip measured at 0.5 hrs post dose by rotarod method; assay type: toxicity, organism-based; conditions: in vivo
# [2] = test system: Mus musculus; assay: Anticonvulsant activity in maximal electroshock induced seizure mouse model assessed as suppression in hindlimb tonic extension at 100 mg/kg, ip measured at 0.5 hrs post dose; assay type: functional, organism-based
# [3] = test system: Mus musculus; assay: Neurotoxicity in mouse assessed as induction of motor impairment at 300 mg/kg, ip measured at 4 hrs post dose by rotarod method; assay type: toxicity, organism-based; conditions: in vivo
# [4] = test system: Mus musculus; assay: Neurotoxicity in mouse assessed as induction of motor impairment at 30 mg/kg, ip measured at 4 hrs post dose by rotarod method; assay type: toxicity, organism-based; conditions: in vivo
# [5] = test system: Mus musculus; assay: Anticonvulsant activity in pentylenetetrazole induced seizure mouse model assessed as no observable episode of clonic convulsion of at least 5 secs at 300 mg/kg, ip measured at 0.5 hrs post dose; assay type: functional, organism-based
# [6] = test system: Rattus norvegicus; assay: Neurotoxicity in Sprague-Dawley rat assessed as behavioral change at 30 mg/kg, po measured at […] post dose; assay type: toxicity, organism-based; conditions: in vivo
# [7] = test system: Mus musculus; assay: Anticonvulsant activity in maximal electroshock induced seizure mouse model assessed as suppression in hindlimb tonic extension at 300 mg/kg, ip measured at 0.5 hrs post dose; assay type: functional, organism-based
# [8] = test system: Rattus norvegicus; assay: Neurotoxicity in Sprague-Dawley rat assessed as behavioral change at 30 mg/kg, po measured at 4 hrs post dose; assay type: toxicity, organism-based; conditions: in vivo
# [9] = test system: Rattus norvegicus; assay: Neurotoxicity in Sprague-Dawley rat assessed as behavioral change at 30 mg/kg, po measured at 1 hr post dose; assay type: toxicity, organism-based; conditions: in vivo
# [10] = test system: Mus musculus; assay: Neurotoxicity in mouse assessed as induction of motor impairment at 30 mg/kg, ip measured at 0.5 hrs post dose by rotarod method; assay type: toxicity, organism-based; conditions: in vivo
# [11] = test system: Rattus norvegicus; assay: Neurotoxicity in Sprague-Dawley rat assessed as behavioral change at 30 mg/kg, po measured at 2 hrs post dose; assay type: toxicity, organism-based; conditions: in vivo
# [12] = test system: Rattus norvegicus; assay: Neurotoxicity in Sprague-Dawley rat assessed as behavioral change at 30 mg/kg, po measured at 0.5 hrs post dose; assay type: toxicity, organism-based; conditions: in vivo
# [13] = test system: Mus musculus; assay: Neurotoxicity in mouse assessed as induction of motor impairment at 100 mg/kg, ip measured at 0.5 hrs post dose by rotarod method; assay type: toxicity, organism-based; conditions: in vivo
# [14] = test system: Mus musculus; assay: Neurotoxicity in mouse assessed as induction of motor impairment at 100 mg/kg, ip measured at 4 hrs post dose by rotarod method; assay type: toxicity, organism-based; conditions: in vivo
# [15] = test system: Mus musculus; assay: Anticonvulsant activity in maximal electroshock induced seizure mouse model assessed as suppression in hindlimb tonic extension at 30 mg/kg, ip measured at 4 hrs post dose; assay type: functional, organism-based
# [16] = test system: Mus musculus; assay: Anticonvulsant activity in maximal electroshock induced seizure mouse model assessed as suppression in hindlimb tonic extension at 100 mg/kg, ip measured at 4 hrs post dose; assay type: functional, organism-based
# [17] = test system: Mus musculus; assay: Anticonvulsant activity in maximal electroshock induced seizure mouse model assessed as suppression in hindlimb tonic extension at 300 mg/kg, ip measured at 4 hrs post dose; assay type: functional, organism-based
# [18] = test system: Mus musculus; assay: Anticonvulsant activity in pentylenetetrazole induced seizure mouse model assessed as no observable episode of clonic convulsion of at least 5 secs at 300 mg/kg, ip measured at 4 hrs post dose; assay type: functional, organism-based
# [19] = test system: Mus musculus; assay: Anticonvulsant activity in pentylenetetrazole induced seizure mouse model assessed as no observable episode of clonic convulsion of at least 5 secs at 100 mg/kg, ip measured at 0.5 hrs post dose; assay type: functional, organism-based
# [20] = test system: Mus musculus; assay: Anticonvulsant activity in 6-Hz induced seizure mouse model assessed as restoration of normal activity within 10 secs from stimulation at 100 mg/kg, ip at 32 mA measured at 0.5 hrs post dose; assay type: functional, organism-based
# [21] = test system: Rattus norvegicus; assay: Neurotoxicity in Sprague-Dawley rat assessed as behavioral change at 30 mg/kg, ip measured at 2 hrs post dose; assay type: toxicity, organism-based; conditions: in vivo
# [22] = test system: Rattus norvegicus; assay: Neurotoxicity in Sprague-Dawley rat assessed as behavioral change at 30 mg/kg, ip measured at 1 hr post dose; assay type: toxicity, organism-based; conditions: in vivo
# [23] = test system: Rattus norvegicus; assay: Neurotoxicity in Sprague-Dawley rat assessed as behavioral change at 30 mg/kg, ip measured at 4 hrs post dose; assay type: toxicity, organism-based; conditions: in vivo
# [24] = test system: Rattus norvegicus; assay: Neurotoxicity in Sprague-Dawley rat assessed as behavioral change at 30 mg/kg, ip measured at 0.5 hrs post dose; assay type: toxicity, organism-based; conditions: in vivo
# [25] = test system: Mus musculus; assay: Anticonvulsant activity in 6-Hz induced seizure mouse model assessed as restoration of normal activity within 10 secs from stimulation at 100 mg/kg, ip at 32 mA measured at […] post dose; assay type: functional, organism-based
# [26] = test system: Rattus norvegicus; assay: Anticonvulsant activity in maximal electroshock induced seizure Sprague-Dawley rat model assessed as suppression in hindlimb tonic extension at 30 mg/kg, ip measured at […] post dose; assay type: functional, organism-based
# [27] = test system: Mus musculus; assay: Anticonvulsant activity in maximal electroshock induced seizure mouse model assessed as suppression in hindlimb tonic extension at 30 mg/kg, ip measured at 0.5 hrs post dose; assay type: functional, organism-based
# [28] = test system: Rattus norvegicus; assay: Neurotoxicity in Sprague-Dawley rat assessed as behavioral change at 30 mg/kg, ip measured at […] post dose; assay type: toxicity, organism-based; conditions: in vivo
# [29] = test system: Mus musculus; assay: Anticonvulsant activity in ip dosed pentylenetetrazole induced seizure mouse model; assay type: functional
# [30] = test system: Rattus norvegicus; assay: Anticonvulsant activity in po dosed pentylenetetrazole induced seizure Sprague-Dawley rat model assessed as no observable episode of clonic convulsion of at least 5 secs; assay type: functional
# [31] = test system: Mus musculus; assay: Anticonvulsant activity in ip dosed 6-Hz induced seizure mouse model assessed as restoration of normal activity within 10 secs from stimulation at 32 mA; assay type: functional
# [32] = test system: Mus musculus; assay: Neurotoxicity in ip dosed mouse assessed as induction of motor impairment by measuring time to peak effect by rotarod method; assay type: toxicity, organism-based; conditions: in vivo
# [33] = test system: Mus musculus; assay: Anticonvulsant activity in ip dosed maximal electroshock induced seizure mouse model assessed as suppression in hindlimb tonic extension by measuring time to peak effect; assay type: functional
# [34] = Protection index, ratio of TD50 for neurotoxicity in ip dosed mouse to ED50 for ip dosed maximal electroshock induced seizure mouse model; assay type: toxicity, organism-based; conditions: in vivo, read-out: Ratio TD50/ED50
# [35] = test system: Mus musculus; assay: Anticonvulsant activity in ip dosed maximal electroshock induced seizure mouse model assessed as suppression in hindlimb tonic extension; assay type: functional
# [36] = Neurotoxicity in ip dosed mouse; assay type: toxicity, organism-based; conditions: in vivo
SMILES,Activity [1],Activity [2],Activity [3],Activity [4],Activity [5],Activity [6],Activity [7],Activity [8],Activity [9],Activity [10],Activity [11],Activity [12],Activity [13],Activity [14],further results
Cc1ccc(/C=C/C(=O)NC(C)CO)cc1 (configuration not stated),Toxic,Active,Non-Toxic,Non-Toxic,Active,Non-Toxic,Active,Non-Toxic,Non-Toxic,Non-Toxic,Non-Toxic,Non-Toxic,Non-Toxic,Non-Toxic,–
Cc1ccccc1/C=C/C(=O)N[C@H]1CC[C@H](O)CC1,–,–,Non-Toxic,Non-Toxic,–,Non-Toxic,–,Non-Toxic,Non-Toxic,Non-Toxic,Non-Toxic,Non-Toxic,–,–,Activity [15]: Active; Activity [16]: Active; Activity [17]: Active
CCC(O)CNC(=O)/C=C/c1ccc(Cl)cc1 (configuration not stated),Toxic,–,Toxic,Non-Toxic,Active,–,Active,–,–,Non-Toxic,–,–,–,Non-Toxic,Activity [17]: Active; Activity [18]: Active; Activity [19]: Active
Cc1ccccc1/C=C/C(=O)NCC(C)O (configuration not stated),Toxic,Active,–,Non-Toxic,Active,–,Active,–,–,Non-Toxic,–,–,–,Non-Toxic,Activity [17]: Active; Activity [19]: Active
Cc1ccccc1/C=C/C(=O)NC(C)CO (configuration not stated),Toxic,Active,Non-Toxic,Non-Toxic,Active,Non-Toxic,Active,Non-Toxic,Non-Toxic,Non-Toxic,Non-Toxic,Non-Toxic,–,Non-Toxic,–
CCC(O)CNC(=O)/C=C/c1ccccc1C (configuration not stated),Toxic,Active,Non-Toxic,Non-Toxic,Active,Non-Toxic,Active,Non-Toxic,Non-Toxic,–,Non-Toxic,Non-Toxic,–,Non-Toxic,Activity [20]: Active; Activity [21]: Non-Toxic; Activity [22]: Non-Toxic; Activity [23]: Non-Toxic; Activity [24]: Non-Toxic; Activity [25]: Active; Activity [26]: Active; Activity [27]: Active; Activity [28]: Non-Toxic
CC[C@@H](CO)NC(=O)/C=C/c1ccccc1C,Toxic,Active,Non-Toxic,Non-Toxic,Active,Non-Toxic,Active,Non-Toxic,Non-Toxic,Non-Toxic,Non-Toxic,Non-Toxic,Non-Toxic,Non-Toxic,–
NC(=O)N1c2ccccc2C=Cc2ccccc21 [CARBAMAZEPINE],–,–,–,–,–,–,–,–,–,–,–,–,–,–,ED50 [29]: > 50 mg/kg; ED50 [30]: > 250 mg/kg; ED50 [31]: 47.9 mg/kg
CCC(O)CNC(=O)/C=C/c1ccc(C)cc1 (configuration not stated),–,–,–,–,–,–,–,–,–,–,–,–,Non-Toxic,Non-Toxic,Activity [21]: Non-Toxic; Activity [22]: Non-Toxic; Activity [23]: Non-Toxic; Activity [24]: Non-Toxic; Activity [28]: Non-Toxic
CC(CO)NC(=O)/C=C/c1ccc(Cl)cc1 (configuration not stated),Toxic,Active,–,Non-Toxic,Active,Non-Toxic,Active,Non-Toxic,Non-Toxic,Non-Toxic,Non-Toxic,Non-Toxic,–,Non-Toxic,Activity [17]: Active; Activity [19]: Active
Cc1ccccc1/C=C/C(=O)N[C@H](C)CO,Toxic,–,Non-Toxic,Non-Toxic,Active,Non-Toxic,Active,Non-Toxic,Non-Toxic,Non-Toxic,Non-Toxic,Non-Toxic,Non-Toxic,Non-Toxic,Activity [20]: Active; Activity [25]: Active
Cc1ccc(/C=C/C(=O)NC2CCCCC2O)cc1 (racemic),–,–,–,–,–,–,–,–,–,–,–,–,Non-Toxic,Non-Toxic,–
Cc1ccc(/C=C/C(=O)NCC(C)O)cc1 (configuration not stated),Toxic,–,Non-Toxic,Non-Toxic,Active,–,Active,–,–,Non-Toxic,–,–,Non-Toxic,Non-Toxic,–
CC(C)(CO)NC(=O)/C=C/c1ccc(Cl)cc1,–,–,Non-Toxic,Non-Toxic,–,Non-Toxic,Active,Non-Toxic,Non-Toxic,Non-Toxic,Non-Toxic,Non-Toxic,Non-Toxic,Non-Toxic,Activity [17]: Active; Activity [21]: Non-Toxic; Activity [22]: Non-Toxic; Activity [23]: Non-Toxic; Activity [24]: Non-Toxic; Activity [28]: Non-Toxic
CC[C@@H](CO)NC(=O)/C=C/c1ccc(C)cc1,Toxic,–,Non-Toxic,Non-Toxic,Active,–,Active,–,–,Non-Toxic,–,–,Non-Toxic,Non-Toxic,–
CC[C@@H](CO)NC(=O)/C=C/c1ccc(Cl)cc1,–,Active,–,–,–,–,–,–,–,–,–,–,Toxic,–,Time [32]: 0.25 h; Time [33]: 0.25 h; selectivity ratio [34]: 1.3; ED50 [35]: 43.3 mg/kg; TD50 [36]: 56.4 mg/kg
Cc1ccccc1/C=C/C(=O)NC1CCCCC1O (racemic),Non-Toxic,–,Non-Toxic,Non-Toxic,–,–,Active,–,–,Non-Toxic,–,–,Non-Toxic,Non-Toxic,–
CC[C@H](CO)NC(=O)/C=C/c1ccc(Cl)cc1,–,Active,–,–,–,–,–,–,–,–,–,–,Toxic,–,Time [32]: 0.25 h; Time [33]: 0.25 h; selectivity ratio [34]: 3.85; ED50 [35]: 27.3 mg/kg; TD50 [36]: 105 mg/kg
